Patent publication US10894036B2, “Use of marizomib for the treatment of central nervous system (CNS) cancers” (Celgene International II Sàrl, priority 2016, dated 2021)

Assay: Phase 1/2 MRZ + BEV and MRZ monotherapy in recurrent G4 MG: adverse events, DLT
Settings: for Ataxia: Treatment Related Grade ≥3 AE, # patients / Confusional State: Treatment Related Grade ≥3 AE, # patients / Delusion: Treatment Related Grade ≥3 AE, # patients / Dyspnea: Treatment Related Grade ≥3 AE, # patients / Embolism: Treatment Related Grade ≥3 AE, # patients / Fall: Treatment Related Grade ≥3 AE, # patients / Fatigue: Treatment Related Grade ≥3 AE, # patients / Hallucination: Treatment Related Grade ≥3 AE, # patients / Headache: Treatment Related Grade ≥3 AE, # patients / Hypertension: Treatment Related Grade ≥3 AE, # patients / Hyponatremia: Treatment Related Grade ≥3 AE, # patients / Insomnia: Treatment Related Grade ≥3 AE, # patients / Intracranial Hemorrhage: Treatment Related Grade ≥3 AE, # patients / Optic Nerve Disorder: Treatment Related Grade ≥3 AE, # patients / Proteinuria: Treatment Related Grade ≥3 AE, # patients: attributed to labelled agent
[1] = MRZ 0.7 mg/m^2 + BEV, Cohort 2, N = 3
[2] = MRZ 0.7 mg/m^2 Cohort 2 (N = 3)
[3] = MRZ 0.8 mg/m^2 + BEV N = 27, MRZ 0.8 mg/m^2 monotherapy N = 30
[4] = MRZ 0.8 mg/m^2 + BEV, Cohorts 3 & 4, N = 27
[5] = MRZ 0.8 mg/m^2 + BEV, N = 27, related to the labelled drug
[6] = MRZ 0.8 mg/m^2 Cohorts 3 & 4 (N = 27)
[7] = MRZ 0.8 mg/m^2 monotherapy, N = 30

C[C@@]12OC(=O)[C@]1([C@@H](O)[C@@H]1C=CCCC1)NC(=O)[C@@H]2CCCl [marizomib]
29 (96.7%) ^[1]: Patients with at Least One TEAE (MRZ 0.8 mg/m^2 + BEV Cohorts 3 & 4 N = 27, MRZ 0.8 mg/m^2 monotherapy N = 30)
3 (10.0%): Infusion site pain, adverse event, patients [3] | Dizziness, MRZ related AE, patients [7]
5 (16.7%): Dizziness, adverse event, patients [3] | Dysarthria, adverse event, patients [3] | Ataxia, MRZ related AE, patients [7]
12 (40.0%): Hallucination, adverse event, patients [3] | Headache, adverse event, patients [3]
1: Delusion, Treatment Related Grade ≥3 AE, patients [4] | Dyspnea, Treatment Related Grade ≥3 AE, patients [4] | Fall, Treatment Related Grade ≥3 AE, patients [4] | Fatigue, Treatment Related Grade ≥3 AE, patients [4] | Hallucination, Treatment Related Grade ≥3 AE, patients [4] | Hyponatremia, Treatment Related Grade ≥3 AE, patients [4] | Insomnia, Treatment Related Grade ≥3 AE, patients [4] | Ataxia, Treatment Related Grade ≥3 AE, patients (MRZ 0.8 mg/m^2 + BEV, Cohorts 3 & 4, N = 27, related to the labelled drug) | Ataxia: Treatment Related Grade ≥3 AE, # patients [6] | Delusion: Treatment Related Grade ≥3 AE, # patients [6] | Dyspnea: Treatment Related Grade ≥3 AE, # patients [6] | Fall: Treatment Related Grade ≥3 AE, # patients [6] | Fatigue: Treatment Related Grade ≥3 AE, # patients [6] | Hallucination: Treatment Related Grade ≥3 AE, # patients [6] | Hyponatremia: Treatment Related Grade ≥3 AE, # patients [6] | Insomnia: Treatment Related Grade ≥3 AE, # patients [6]
11 (36.7%): Nausea, adverse event, patients [3] | Hallucination, MRZ related AE, patients [7] | Headache, MRZ related AE, patients [7]
2 (6.7%): Epistaxis, adverse event, patients [3] | Infusion site pain, MRZ related AE, patients [7]
7 (25.9%): Ataxia, treatment-related AE, patients [5] | Confusional state, treatment-related AE, patients [5]
19 (63.3%): Fatigue, adverse event, patients [3]
4 (14.8%): Infusion site pain, treatment-related AE, patients [5]
18 (60.0%): Fatigue, MRZ related AE, patients [7]
8 (29.6%): Diarrhoea, treatment-related AE, patients [5] | Dizziness, treatment-related AE, patients [5]
0: Confusional State, Treatment Related Grade ≥3 AE, patients [1] | Delusion, Treatment Related Grade ≥3 AE, patients [1] | Dyspnea, Treatment Related Grade ≥3 AE, patients [1] | Embolism, Treatment Related Grade ≥3 AE, patients [1] | Fall, Treatment Related Grade ≥3 AE, patients [1] | Fatigue, Treatment Related Grade ≥3 AE, patients [1] | Hallucination, Treatment Related Grade ≥3 AE, patients [1] | Headache, Treatment Related Grade ≥3 AE, patients [1] | Hypertension, Treatment Related Grade ≥3 AE, patients [1] | Hyponatremia, Treatment Related Grade ≥3 AE, patients [1] | Insomnia, Treatment Related Grade ≥3 AE, patients [1] | Intracranial Hemorrhage, Treatment Related Grade ≥3 AE, patients [1] | Optic Nerve Disorder, Treatment Related Grade ≥3 AE, patients [1] | Proteinuria, Treatment Related Grade ≥3 AE, patients [1] | Ataxia, Treatment Related Grade ≥3 AE, patients (MRZ 0.7 mg/m^2 + BEV, Cohort 2, N = 3, related to the labelled drug) | Ataxia: Treatment Related Grade ≥3 AE, # patients [2] | Confusional State: Treatment Related Grade ≥3 AE, # patients [2] | Delusion: Treatment Related Grade ≥3 AE, # patients [2] | Dyspnea: Treatment Related Grade ≥3 AE, # patients [2] | Embolism: Treatment Related Grade ≥3 AE, # patients [2] | Fall: Treatment Related Grade ≥3 AE, # patients [2] | Fatigue: Treatment Related Grade ≥3 AE, # patients [2] | Hallucination: Treatment Related Grade ≥3 AE, # patients [2] | Headache: Treatment Related Grade ≥3 AE, # patients [2] | Hypertension: Treatment Related Grade ≥3 AE, # patients [2] | Hyponatremia: Treatment Related Grade ≥3 AE, # patients [2] | Insomnia: Treatment Related Grade ≥3 AE, # patients [2] | Intracranial Hemorrhage: Treatment Related Grade ≥3 AE, # patients [2] | Optic Nerve Disorder: Treatment Related Grade ≥3 AE, # patients [2] | Proteinuria: Treatment Related Grade ≥3 AE, # patients [2] | Confusional State, Treatment Related Grade ≥3 AE, patients [4] | Embolism, Treatment Related Grade ≥3 AE, patients [4] | Hypertension, Treatment Related Grade ≥3 AE, patients [4] | Intracranial Hemorrhage, Treatment Related Grade ≥3 AE, patients [4] | Optic Nerve Disorder, Treatment Related Grade ≥3 AE, patients [4] | Proteinuria, Treatment Related Grade ≥3 AE, patients [4] | Confusional State: Treatment Related Grade ≥3 AE, # patients [6] | Embolism: Treatment Related Grade ≥3 AE, # patients [6] | Hypertension: Treatment Related Grade ≥3 AE, # patients [6] | Intracranial Hemorrhage: Treatment Related Grade ≥3 AE, # patients [6] | Optic Nerve Disorder: Treatment Related Grade ≥3 AE, # patients [6] | Proteinuria: Treatment Related Grade ≥3 AE, # patients [6] | Dysphonia, MRZ related AE, patients [7] | Muscular weakness, MRZ related AE, patients [7] | Platelet count decreased, MRZ related AE, patients [7] | Stomatitis, MRZ related AE, patients [7] | Upper-airway cough syndrome, MRZ related AE, patients [7]
4 (13.3%): Fall, adverse event, patients [3] | Hypertension, adverse event, patients [3]
17 (63.0%): Nausea, treatment-related AE, patients [5]
9 (30.0%): Constipation, adverse event, patients [3] | Vomiting, adverse event, patients [3] | Nausea, MRZ related AE, patients [7]
5 (16.7%: Anaemia, MRZ related AE, patients [7]
7 (23.3): Diarrhoea, MRZ related AE, patients [7] | Vomiting, MRZ related AE, patients [7]
7 (23.3%): Confusional state, adverse event, patients [3] | Diarrhoea, adverse event, patients [3] | Platelet count decreased, adverse event, patients [3]
12 (44.4%): Hallucination, treatment-related AE, patients [5] | Headache, treatment-related AE, patients [5]
2 (7.4%): Platelet count decreased, treatment-related AE, patients [5]
14 (46.7%): Insomnia, adverse event, patients [3]
5 (18.5%): Anaemia, treatment-related AE, patients [5] | Constipation, treatment-related AE, patients [5]
8 (27.6%): Hyperglycaemia, adverse event, patients [3] | Hypokalemia, adverse event, patients [3]
3: Headache, Treatment Related Grade ≥3 AE, patients [4] | Headache: Treatment Related Grade ≥3 AE, # patients [6]
1 (3.7%): Dysphonia, treatment-related AE, patients [5] | Hypertension, treatment-related AE, patients [5]
1 (3.3%): Dysphonia, adverse event, patients [3] | Epistaxis, MRZ related AE, patients [7] | Fall, MRZ related AE, patients [7]
19 (70.4%): Fatigue, treatment-related AE, patients (MRZ 0.8 mg/m^2 + BEV Cohorts 3 & 4, N = 27, related to the labelled drug (MRZ + BEV = related to both))
0 (0.0%): Epistaxis, treatment-related AE, patients [5] | Upper-airway cough syndrome, treatment-related AE, patients [5]
6 (20.0%): Anaemia, adverse event, patients [3] | Ataxia, adverse event, patients [3] | Confusional state, MRZ related AE, patients [7] | Constipation, MRZ related AE, patients [7]
15 (55.6%): Vomiting, treatment-related AE, patients [5]
3 (11.1%): Fall, treatment-related AE, patients [5] | Muscular weakness, treatment-related AE, patients [5] | Stomatitis, treatment-related AE, patients [5]
